We go through 34 compounds from patent publication US12391660B2, “Heteroaromatic acetamide derivative, and preparation and use thereof” (Hangzhou Westan Pharmaceutical Technology Co., Ltd, priority 2019, dated 2025).

In this experiment the target is human TRPA1 (Homo sapiens (Human), UniProt O75762). In words: FLIPR assay of inhibitory activity on human TRPA1 (calcium ion flux fluorescence). It is filed as cell-based. The settings on record: HEK293 cells stably expressing human TRPA1. As to the method: 1. FLIPR Assay of Inhibitory Activity on Human TRPA1
Sequence of human TRPA1 (O75762 whole entry): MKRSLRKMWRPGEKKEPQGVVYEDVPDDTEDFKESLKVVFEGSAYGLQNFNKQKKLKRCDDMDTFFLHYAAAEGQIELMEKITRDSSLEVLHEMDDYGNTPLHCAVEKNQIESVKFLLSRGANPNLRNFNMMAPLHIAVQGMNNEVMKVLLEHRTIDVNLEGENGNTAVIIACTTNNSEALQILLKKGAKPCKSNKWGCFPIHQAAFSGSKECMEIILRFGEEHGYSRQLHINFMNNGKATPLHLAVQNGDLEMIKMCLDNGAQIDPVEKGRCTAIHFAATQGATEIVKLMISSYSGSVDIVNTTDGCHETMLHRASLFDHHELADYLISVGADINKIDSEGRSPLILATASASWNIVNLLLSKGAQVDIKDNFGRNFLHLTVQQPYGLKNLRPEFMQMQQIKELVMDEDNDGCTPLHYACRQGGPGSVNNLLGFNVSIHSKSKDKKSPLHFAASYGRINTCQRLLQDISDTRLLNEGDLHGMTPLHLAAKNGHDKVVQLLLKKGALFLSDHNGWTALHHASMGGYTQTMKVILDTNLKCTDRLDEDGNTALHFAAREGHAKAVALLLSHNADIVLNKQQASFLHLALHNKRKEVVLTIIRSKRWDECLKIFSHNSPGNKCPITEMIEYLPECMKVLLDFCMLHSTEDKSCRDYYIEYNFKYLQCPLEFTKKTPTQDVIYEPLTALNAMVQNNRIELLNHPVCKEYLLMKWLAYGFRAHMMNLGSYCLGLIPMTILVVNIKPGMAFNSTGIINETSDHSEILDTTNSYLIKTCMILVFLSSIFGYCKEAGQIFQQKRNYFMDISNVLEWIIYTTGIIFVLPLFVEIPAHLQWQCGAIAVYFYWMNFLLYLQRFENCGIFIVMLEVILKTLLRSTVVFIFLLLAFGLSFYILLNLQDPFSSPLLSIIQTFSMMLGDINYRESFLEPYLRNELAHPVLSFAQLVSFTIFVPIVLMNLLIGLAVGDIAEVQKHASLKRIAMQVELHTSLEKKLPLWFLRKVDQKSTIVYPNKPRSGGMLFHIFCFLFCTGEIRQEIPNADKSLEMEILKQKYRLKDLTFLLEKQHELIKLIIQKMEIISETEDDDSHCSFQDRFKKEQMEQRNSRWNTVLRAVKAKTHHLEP
A calcium ion flux fluorescence method (FLIPR assay) was adopted to measure the inhibitory activity of compounds on human TRPA1 channel. The literature reports of Lee and Chen et al. may be referred to for the method [Lee et al. Br J Pharmacol 2008, 153 (8): 1739-1749] [Chen et al. Pain 2011, 152(5):1165-72].
A HEK293 recombinant cell strain stably expressing human TRPA1 (Creative Biogene, NY) was cultured in DMEM (Thermo Fisher Scientific, Shanghai) medium (containing 10% calf serum, 5 μg/ml Blasticidin and 400 ug/ml G418). The incubator was under a condition of 37° C. and air humidity with 5% CO2.
TRPA1 cells were seeded in a 96-well analysis plate at a density of 75,000 cells per well (100 ul/well), and cultured overnight in an incubator at 37° C. and 5% CO2. On the second day, incubation was continued overnight under the same condition to induce the expression of TRPA1 after the culture medium in each well was poured out and a fresh supplement with the same culture medium containing 0.1 μg/ml Tetracycline was added. The further next day, the culture medium was pour out, a DMEM culture solution (also containing 2.5 mM Probenicid) containing 5 μM Fluo-4 AM (Molecular Probes) was added to each well, and incubation was conducted at 37° C. for 1 hour.
The compound was dissolved in 100% DMSO to prepare a 30 mM stock solution which was stored at −20° C. On the day of use, the compound stock solution was thawed at room temperature. Each compound was subjected to 1:5 serial dilution using DMSO medium at a starting concentration of 30 μM with 9 concentration points on a 96-well plate. Each compound was diluted in duplicate for testing. Ruthenium Red was used as the positive control compound and the same dilution was carried out at a starting concentration of 3 μM.
The cell analysis plate was placed in an FLIPR instrument […], and the compound in the compound plate was added to the corresponding hole on the cell analysis plate (First addition) via an automatic program, and the calcium ion fluorescence signal was recorded to determine whether the compound had agonistic activity. After 10 minutes, CaCl2 (Second addition) was added a final concentration of 3 mM to each well to stimulate intracellular calcium flux signals. Ca^++-dependent fluorescence signal was monitored continuously at 538 nm wavelength to analyze the inhibitory activity of the compounds.
The data was collected and analyzed using a FLIPR program. The fluorescence peak value was used to evaluate the inhibitory (or agonistic) activity of the compounds at each concentration. EXCEL and PRISM programs were used to calculate the IC50 value of the compounds.
Usually IC50 stands for the concentration at which inhibition is half-maximal. Regarding `N#Cc1ccc(OC2(C(=O)N3CC4CCC3CN4c3cccc(C(F)(F)F)n3)CCCC2)cc1` (stereo not shown) [Compound 55, 4-((1-(5-(6-(trifluoromethyl)pyridin-2-yl)-2,5-diazabicyclo [2.2.2]octane-2-carbonyl)cyclopentyl)oxy)benzonitrile], the IC50 was 91 nM. In the case of `CC(C)(C)C1CCN(C(=O)C2(Nc3nc(C#N)co3)CCCC2)CC1` [Compound 41, 2-((1-(4-(tert-butyl)piperidine-1-carbonyl)cyclopentyl)amino) oxazole-4-carbonitrile], the IC50 was determined as 3070 nM. As for `N#Cc1ccc(NC2(C(=O)N3CC4CCC3CN4c3cccc(C(F)(F)F)n3)CCCC2)cc1` (stereo not shown) [Compound 29, 4-((1-(5-(6-(trifluoromethyl)pyridin-2-yl)-2,5-diazabicyclo[2.2.2]octane-2-carbonyl)cyclopentyl)amino)benzonitrile], the IC50 stood at 26 nM. Turning to `N#Cc1ccc(NC2(C(=O)N3CCN(c4ccc(C(F)(F)F)nn4)CC3)CCCC2)cc1Cl` [Compound 22, 2-chloro-4-((1-(4-(6-(trifluoromethyl)pyridazin-3-yl)piperazine-1-carbonyl)cyclopentyl)amino)benzonitrile], the IC50 is 765 nM. As for `Cn1ccc2cc(SC3(C(=O)N4CCC(C(C)(C)C)CC4)CCCC3)ccc21` [Compound 67, 5-((1-(4-(tert-butyl)piperidine-1-carbonyl)cyclopentyl)sulfanyl)-1-methyl-1H-indole], the IC50 was determined as 3780 nM. Then “4-((3-(4-(3-trifluoromethyl) phenyl)piperazine-1-carbonyl) propane-2-yl)amino)benzo- nitrile [Compound 9]”, with 5670 nM. With `N#Cc1ccc(NC2(C(=O)N3CCN(CC4CCCC4)CC3)CCCC2)cc1` [Compound 30, 4-((1-(4-(cyclopentanemethyl)piperazine-1-carbonyl)cyclopentyl)amino)benzonitrile], the IC50 was 54 nM.

As to `N#Cc1ccc(NC2(C(=O)N3CCN(c4ccc(C(F)(F)F)s4)CC3)CCCC2)cc1` [Compound 24, 4-((1-(4-(5-(trifluoromethyl)thien-2-yl)piperazine-1-carbonyl)cyclopentyl)amino)benzonitrile], the concentration for half-maximal inhibition (IC50) worked out at 576 nM. As for `Cc1cccc(N2CCN(C(=O)C3(Nc4ccc(C#N)cc4)CCCC3)CC2)n1` [Compound 15, 4-((1-(4-(6-methylpyridin-2-yl)piperazine-1-carbonyl)cyclopentyl)amino)benzonitrile], the IC50 was 23 nM.

On to `CC(C)(C)C(Nc1ccc(C#N)cc1)C(=O)N1CCN(c2cccc(C(F)(F)F)n2)CC1` (stereo not shown) [Compound 14], for which the IC50 is 87 nM. On to `N#Cc1ccc(NC2(C(=O)N3CCN(c4ccc(C(F)(F)F)nn4)CC3)CCCC2)cc1` [Compound 19, 4-((1-(4-(6-(trifluoromethyl)pyridazin-3-yl)piperazine-1-carbonyl)cyclopentyl)amino) benzonitrile], for which the IC50 is 87 nM.

Regarding `CN(C)C(=O)c1ccc(N2CCN(C(=O)C3(Nc4ccc(C#N)cc4)CCCC3)CC2)nc1` [Compound 16, 6-(4-(1-((4-cyano-phenyl)amino)cyclopentane-1-carbonyl)piperazine-1-yl)N, N-dimethylnicotinamide], the IC50 was 8920 nM.

Turning to `CC(C)(C)C1CCN(C(=O)C2(Oc3ccc(C#N)cc3)CCCC2)CC1` [Compound 56, 4-((1-(4-(tert-butyl)piperidine-1-carbonyl)cyclopentyl)oxy) benzonitrile], the IC50 was found to be 76 nM. As to `Cc1cccc(N2CCN(C(=O)C3(Nc4ccc(C#N)cc4)CCCC3)CC2)c1` [Compound 7], the IC50 is 64 nM. As for `N#Cc1ccc(NC2(C(=O)N3CCN(c4cccc(C(F)(F)F)n4)CC3)CC2)cc1` [Compound 12, 4-((1-(4-(6-(trifluoromethyl)pyridin-2-yl)piperazine-1-carbonyl)cyclopropyl)amino)ben zonitrile], the IC50 came out at 6230 nM. As for `CC(C)(C)C1CCN(C(=O)C2(Nc3ccc(C#N)cc3)CC2)CC1` [Compound 38, 4-((1-(4-(tert-butyl)piperidine-1-carbonyl)cyclopropyl)amino)benzonitrile], the IC50 was 10200 nM. Then `N#Cc1ccc(OC(C(=O)N2CCN(c3ccc(C(F)(F)F)nn3)CC2)c2ccccc2)cc1` (stereo not shown) [Compound 63], with 560 nM; and `N#Cc1ccc(NC2(C(=O)N3CCC4(CCCC4)CC3)CCCC2)cc1` [Compound 34, 4-((1-(8-aza-spiro[4.5]decane-8-carbonyl)cyclopentyl)amino)benzonitrile], with 287 nM. Turning to `N#Cc1ccc(OC2(C(=O)N3CCN(c4cccc(C(F)(F)F)n4)CC3)CCCC2)cc1` [Compound 47, 4-((1-(4-(6-(trifluoromethyl)pyridin-2-yl)piperazine-1-carbonyl)cyclopentyl)oxy)benzonitrile], the concentration for half-maximal inhibition (IC50) stood at 38 nM. Turning to `CC(C)(C)C1CCN(C(=O)C2(Nc3ccc(Cl)cc3)CCCC2)CC1` [Compound 46, 4-((1-(4-(tert-butyl)piperidine-1-carbonyl)cyclopentyl)amino) chlorobenzene], the IC50 was determined as 108 nM.

Regarding `C#Cc1ccc(NC2(C(=O)N3CCC(C(C)(C)C)CC3)CCCC2)cc1` [Compound 36, 4-((1-(4-(tert-butyl)piperidine-1-carbonyl)cyclopentyl)amino)phenylacetylene], the IC50 was found to be 1250 nM. Turning to `N#Cc1ccc(NC2(C(=O)N3CCN(c4ccc(OC(F)(F)F)cc4)CC3)CCCC2)cc1` [Compound 5], the IC50 worked out at 129 nM. Consider `C#Cc1ccc(NC2(C(=O)N3CCN(c4cccc(C(F)(F)F)n4)CC3)CCCC2)cc1` [Compound 27, 4-((1-(4-(6-(trifluoromethyl)pyridin-2-yl)piperazine-1-carbonyl)cyclopentyl)amino)phenylacetylene], for which the IC50 worked out at 567 nM. Then `CC(C)(C)N1CCN(C(=O)C2Cc3cc(C#N)ccc3O2)CC1` (stereo not shown) [Compound 80, 2-(4-(tert-butyl)piperazine-1-carbonyl)-2,3-2H-5-cyano-benzofuran], with 68 nM; and `CC(C)(C)N1CCN(C(=O)C2(Oc3ccc(C(F)(F)F)cc3)CCCC2)CC1` [Compound 64, 4-((1-(4-(tert-butyl)piperazine-1-carbonyl)cyclopentyl)oxy) trifluoromethylbenzene], with 552 nM. Then `Cc1cccc(N2CCN(C(=O)C3(Oc4ccc(C#N)cc4)CCCC3)CC2)c1` [Compound 48, 4-((1-(4-(m-methylphenyl)piperazine-1-carbonyl)cyclopentyl)oxy)benzonitrile], with 65 nM; and `Cn1cc(NC2(C(=O)N3CCC(C(C)(C)C)CC3)CCCC2)nc1C#N` [Compound 42, 4-((1-(4-(tert-butyl)piperidine-1-carbonyl)cyclopentyl)amino) -1-methyl-1H-imidazole-2-carbonitrile], with 4650 nM. Consider `Cc1cccc(N2CCN(C(=O)C3Cc4cc(C#N)ccc4O3)CC2)n1` (stereo not shown) [Compound 75], for which the IC50 was determined as 285 nM. As for `CC(C)(C)C1CCN(C(=O)C2(Nc3ccc(C(F)(F)F)cc3)CCCC2)CC1` [Compound 45], the IC50 worked out at 72 nM. Then `N#Cc1ccc2[nH]c(C(=O)N3CCN(c4cccc(C(F)(F)F)n4)CC3)cc2c1` [Compound 71, 2-(4-(6-(trifluoromethyl)pyridin-2-yl)piperazine-1-carbonyl)-1H-5-cyanoindole], with 866 nM; and `CC(C)(C)N1CCN(C(=O)C2Cc3cc(C#N)ccc3N2)CC1` (stereo not shown) [Compound 77, 2-(4-(tert-butyl)piperazine-1-carbonyl)-5-cyanoindoline], with 91 nM; and `CC(C)(C)C1CCN(C(=O)C2Cc3cc(C#N)ccc3O2)CC1` (stereo not shown) [Compound 79, 2-(4-(tert-butyl)piperidine-1-carbonyl)-2,3-2H-5-cyanoben-zofuran], with 82 nM. For the compound `CC(C)(C)N1CCN(C(=O)C2(Oc3ccc(C#N)cc3)CCCC2)CC1` [Compound 57, 4-((1-(4-(tert-butyl)piperazine-1-carbonyl)cyclopentyl)oxy) benzonitrile], the IC50 worked out at 51 nM. In the case of `CC(C)CC1CCN(C(=O)C2(Nc3ccc(C#N)cc3)CCCC2)CC1` [Compound 32, 4-((1-(4-(isobutyl)piperidine-1-carbonyl)cyclopentyl)amino)benzonitrile] it was 543 nM.
